Data published in patent US11072632B2, “Inhibitors of 17β-HSD1, 17β-HSD3 and 17β-HSD10” (UNIVERSITÉ LAVAL, priority 2011, dated 2021).
Read-outs that look alike come from different tables or passages of the source.

Tests used:
17β-HSD3 [1] = molecular target: T1, 17β-HSD3 (Homo sapiens, UniProt P37058); assay: Inhibition of 17β-HSD3 in intact HEK-293 cells; type: cell-based; settings: for Intact cells (%), tested at 1 μM: Table 3, footnote b
T1 construct: expressed in transfected cells; host or cells: HEK-293 (homogenate)
T1 sequence (P37058 1-310): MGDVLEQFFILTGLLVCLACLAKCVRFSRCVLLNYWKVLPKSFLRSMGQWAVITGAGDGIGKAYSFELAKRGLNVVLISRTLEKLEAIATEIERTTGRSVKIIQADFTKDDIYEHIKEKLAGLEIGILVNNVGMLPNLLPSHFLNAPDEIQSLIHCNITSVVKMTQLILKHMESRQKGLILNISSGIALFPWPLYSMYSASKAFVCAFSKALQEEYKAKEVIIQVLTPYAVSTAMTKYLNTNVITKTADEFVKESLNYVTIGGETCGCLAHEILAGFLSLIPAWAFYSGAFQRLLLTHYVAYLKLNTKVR

17β-HSD3 [2] = molecular target: T1, 17β-HSD3; assay: Inhibition of 17β-HSD3 in homogenated HEK-293 cells; type: biochemical
17β-HSD10 = molecular target: T2, 17β-HSD10 (Homo sapiens, UniProt Q99714); assay: Inhibition of 17β-HSD10 in stably transfected HEK-293 whole cells (E2 into E1); type: cell-based
T2 construct: expressed in transfected cells
T2 sequence (Q99714 1-261): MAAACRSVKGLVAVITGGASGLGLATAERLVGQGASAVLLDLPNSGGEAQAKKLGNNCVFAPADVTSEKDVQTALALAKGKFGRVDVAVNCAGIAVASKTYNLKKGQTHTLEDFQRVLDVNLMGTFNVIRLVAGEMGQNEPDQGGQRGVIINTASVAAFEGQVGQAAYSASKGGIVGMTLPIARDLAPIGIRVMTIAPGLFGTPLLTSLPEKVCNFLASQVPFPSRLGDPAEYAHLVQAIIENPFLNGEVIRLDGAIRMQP

17β-HSD1 = molecular target: T3, 17β-HSD1 (Homo sapiens, UniProt P14061); assay: Inhibition of 17β-HSD1 in T-47D intact cells (E1 into E2); type: cell-based; settings: T47D; for inhibition at 1 µM: read-out: Inhibition (1 μM)
T3 construct: endogenous in cells; host or cells: T-47D
T3 sequence (P14061 1-328): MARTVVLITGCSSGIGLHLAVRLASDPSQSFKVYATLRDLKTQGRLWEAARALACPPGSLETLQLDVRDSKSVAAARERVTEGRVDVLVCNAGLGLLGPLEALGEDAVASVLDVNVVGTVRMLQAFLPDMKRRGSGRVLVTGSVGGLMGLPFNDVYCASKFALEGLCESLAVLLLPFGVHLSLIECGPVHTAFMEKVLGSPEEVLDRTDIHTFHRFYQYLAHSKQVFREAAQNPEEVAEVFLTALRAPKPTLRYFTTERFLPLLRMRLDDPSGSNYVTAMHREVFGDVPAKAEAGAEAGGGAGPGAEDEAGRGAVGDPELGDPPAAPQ
Procedure: T-47D cells were seeded in a 24-well plate (3000 cells/well) in medium supplemented with insulin (50 ng/mL) and 5% dextran-coated charcoal treated FBS rather than 10% FBS to remove remaining hormones. […] Each inhibitor was assessed in triplicate. After incubation, the culture medium was removed and labelled steroids (E1 and E2) extracted with 1 mL of diethyl ether. The organic phases were separated and evaporated to dryness using nitrogen. Residues were dissolved in dichloromethane and dropped on silica gel thin layer chromatography plates (EMD Chemicals Inc., Gibbstown, N.J., USA) and eluted with a toluene/acetone (4:1) solvent system. Substrate [^14C]-E1 and metabolite [^14C]-E2 were identified by comparison with reference steroids and quantified using a Storm 860 system (Molecular Dynamics, Sunnyvale, Calif., USA).
T-47D cells were seeded in a 24-well plate (3000 cells/well) in 990 μL of medium supplemented with insulin (50 ng/mL) and 5% dextran-coated charcoal-treated FBS, which was used rather than untreated 10% FBS, to remove the remaining steroid hormones. […] The final concentration of ethanol in the well was adjusted to 0.1%. Additionally, 5 μL of a solution of [^14C]-estrone (American Radiolabeled Chemicals, Inc., St. Louis, Mo., USA) was added to obtain a final concentration of 60 nM. […] After incubation, the culture medium was removed and labeled steroids (E1 and E2) were extracted with 1 mL of diethyl ether. The organic phases were evaporated to dryness with nitrogen. Residues were dissolved in dichloromethane and dropped on silica gel thin layer chromatography plates (EMD Chemicals Inc., Gibbstown, N.J., USA) and eluted with toluene/acetone (4:1) as solvent system. Substrate [^14C]-E1 and metabolite [^14C]-E2 were identified by comparison with reference steroids (E1 and E2) and quantified using the Storm 860 system (Molecular Dynamics, Sunnyvale, Calif., USA).

[3] = HEK293, 1 h, Table 3, read-out: Intact cells (%) (0.1 μM)
[4] = Table 3, 0.01 μM, read-out: Homo (%) (0.01 μM)
[5] = Table 3, 0.1 μM, read-out: Homo (%) (0.1 μM)
[6] = HEK293, [14C]-E2 (1 μM) into [14C]-E1, intact HEK-293 cells, 1 μM, read-out: Inhibition (%) at 1 μM
[7] = Table 2 (17β-HSD1), [14C]-E1 60 nM, T-47D intact cells, 0.1 μM, read-out: Inhibition (0.1 μM)
[8] = Table 2 (17β-HSD1), [14C]-E1 60 nM, T-47D intact cells, 1 μM

SMILES: C[C@]12CC[C@](O)(CN3CCN(Cc4ccccc4)CC3)C[C@@H]1CC[C@@H]1[C@@H]2CC[C@]2(C)C(=O)CC[C@@H]12 [Compound 7j, (3α,5α)-3-[(4-benzylpiperazin-1-yl)methyl]-3-hydroxyandrostan-17-one]
- inhibition at 0.1 µM (17β-HSD3 [1]; HEK293, 1 h, read-out: Intact cells (%) (0.1 μM), Table 2 (17β-HSD3)): 37%
- inhibition at 0.1 µM (17β-HSD3 [1]; HEK293, 1 h, read-out: Intact cells (%) (0.1 μM), Table 3): 38%
- inhibition at 1 µM (17β-HSD3 [1]; HEK293, 1 h, read-out: Intact cells (%) (1 μM), Table 2 (17β-HSD3), 1 μM): 80%
- inhibition at 0.01 µM (17β-HSD3 [2]; Table 2 (17β-HSD3), [14C]-Δ4-dione 50 nM into [14C]-T, 0.01 μM, read-out: Homo (%) (0.01 μM)): 35%
- inhibition at 0.01 µM (17β-HSD3 [2]; read-out: Homo (%) (0.01 μM), Table 3, 0.01 μM): 36%
- inhibition at 0.1 µM (17β-HSD3 [2]; read-out: Homo (%) (0.1 μM), Table 2 (17β-HSD3), 0.1 μM): 72%
- inhibition at 0.1 µM (17β-HSD3 [2]; read-out: Homo (%) (0.1 μM), Table 3, 0.1 μM): 74%
- inhibition at 1 µM (17β-HSD3 [2]; read-out: Homo (%) (1 μM), Table 2 (17β-HSD3), 1 μM): 90%
- inhibition at 1 µM (17β-HSD10; HEK293, read-out: Inhibition (%) at 1 μM): 57%

SMILES: C[C@]12CC[C@@H]3c4ccc(CCCl)cc4CC[C@H]3[C@@H]1C[C@H](Cc1cccc(C(N)=O)c1)[C@@H]2O [Compound 9, 3-{[(16β,17β)-3-(2-chloroethyl)-17-hydroxyestra-1(10),2,4-trien-16-yl]methyl}benzamide]
- inhibition at 0.1 µM (17β-HSD1; read-out: Inhibition (0.1 μM)): 55%

SMILES: C[C@]12CC[C@@H]3c4ccc(CCI)cc4CC[C@H]3[C@@H]1C[C@H](Cc1cccc(C(N)=O)c1)[C@@H]2O [Compound 10, 3-{[(16β,17β)-17-hydroxy-3-(2-iodoethyl)estra-1(10),2,4-trien-16-yl]methyl}benzamide]
- inhibition at 0.1 µM (17β-HSD1; read-out: Inhibition (0.1 μM)): 7%

SMILES: C[C@]12CC[C@](O)(CN3CCN(Cc4cccc(C(F)(F)F)c4)CC3)C[C@@H]1CC[C@@H]1[C@@H]2CC[C@]2(C)C(=O)CC[C@@H]12 [Compound 10a, (3α,5α)-3-hydroxy-3-({4-[3-(trifluoromethyl)benzyl]piperazin-1-yl}methyl)androstan-17-one]
- inhibition at 0.1 µM (17β-HSD3 [1]; [3]): 52%
- inhibition at 0.01 µM (17β-HSD3 [2]; [4]): 51%
- inhibition at 0.1 µM (17β-HSD3 [2]; [5]): 88%
- inhibition at 1 µM (17β-HSD10; [6]): 34%

SMILES: C[C@]12CC[C@](O)(CN3CCN(Cc4ccccc4C(F)(F)F)CC3)C[C@@H]1CC[C@@H]1[C@@H]2CC[C@]2(C)C(=O)CC[C@@H]12 [Compound 10b, (3α,5α)-3-hydroxy-3-({4-[2-(trifluoromethyl)benzyl]piperazin-1-yl}methyl)androstan-17-one]
- inhibition at 0.1 µM (17β-HSD3 [1]; [3]): 20%
- inhibition at 0.01 µM (17β-HSD3 [2]; [4]): 18%
- inhibition at 0.1 µM (17β-HSD3 [2]; [5]): 86%
- inhibition at 1 µM (17β-HSD10; [6]): 50%

SMILES: C[C@]12CC[C@](O)(CN3CCN(Cc4cccc(SC(F)(F)F)c4)CC3)C[C@@H]1CC[C@@H]1[C@@H]2CC[C@]2(C)C(=O)CC[C@@H]12 [Compound 10d, (3α,5α)-3-hydroxy-3-[(4-{3-[(trifluoromethyl)sulfanyl]benzyl}piperazin-1-yl)methyl]androstan-17-one]
- Intact cells (%), tested at 1 μM (17β-HSD3 [1]; 1 μM): N/A (62)^b %
- inhibition at 0.01 µM (17β-HSD3 [2]; [4]): 3%
- inhibition at 0.1 µM (17β-HSD3 [2]; [5]): 91%
- inhibition at 1 µM (17β-HSD10; [6]): 29%

SMILES: C[C@]12CC[C@](O)(CN3CCN(Cc4cccc(Cl)c4)CC3)C[C@@H]1CC[C@@H]1[C@@H]2CC[C@]2(C)C(=O)CC[C@@H]12 [Compound 10e, (3α,5α)-3-{[4-(3-chlorobenzyl)piperazin-1-yl]methyl}-3-hydroxyandrostan-17-one]
- Intact cells (%), tested at 1 μM (17β-HSD3 [1]; 1 μM): N/A (75)^b %
- Homo (%) (0.01 μM) (17β-HSD3 [2]; Table 3, 0.01 μM): 26%
- Homo (%) (0.1 μM) (17β-HSD3 [2]; Table 3, 0.1 μM): 85%
- Inhibition (%) at 1 μM (17β-HSD10; [14C]-E2 (1 μM) into [14C]-E1, intact HEK-293 cells, 1 μM): 21%

SMILES: C[C@]12CC[C@@H]3c4ccc(OCCBr)cc4CC[C@H]3[C@@H]1C[C@H](Cc1cccc(C(N)=O)c1)[C@@H]2O [Compound 15, 3-{[(16β,17β)-3-(2-bromoethoxy)-17-hydroxyestra-1(10),2,4-trien-16-yl]methyl}benzamide]
- inhibition at 0.1 µM (17β-HSD1; [7]): 39%
- inhibition at 1 µM (17β-HSD1; [8]): 81%

SMILES: C[C@]12CC[C@@H]3c4ccc(CCc5ccccc5)cc4CC[C@H]3[C@@H]1C[C@H](Cc1cccc(C(N)=O)c1)[C@@H]2O [Compound 19, 3-{[(16β,17β)-17-hydroxy-3-(2-phenylethyl)estra-1(10),2,4-trien-16-yl]methyl}benzamide]
- inhibition at 0.1 µM (17β-HSD1; read-out: Inhibition (0.1 μM)): 13%

SMILES: C[C@]12CC[C@@H]3c4ccc(CCCO)cc4CC[C@H]3[C@@H]1C[C@H](Cc1cccc(C(N)=O)c1)[C@@H]2O [Compound 24, 3-{[(16β,17β)-17-hydroxy-3-(3-hydroxypropyl)estra-1(10),2,4-trien-16-yl]methyl}benzamide]
- inhibition at 0.1 µM (17β-HSD1; [7]): 16%

SMILES: C[C@]12CC[C@@H]3c4ccc(CCCBr)cc4CC[C@H]3[C@@H]1C[C@H](Cc1cccc(C(N)=O)c1)[C@@H]2O [Compound 25, 3-{[(16β,17β)-3-(3-bromopropyl)-17-hydroxyestra-1(10),2,4-trien-16-yl]methyl}benzamide]
- inhibition at 0.1 µM (17β-HSD1; read-out: Inhibition (0.1 μM)): 37%
- inhibition at 1 µM (17β-HSD1): 82%

SMILES: CNC(=O)Cc1ccc2c(c1)CC[C@@H]1[C@@H]2CC[C@]2(C)[C@@H](O)[C@@H](Cc3cccc(C(N)=O)c3)C[C@@H]12 [Compound 32, 3-{[(16β,17β)-17-hydroxy-3-[2-(methylamino)-2-oxoethyl]estra-1(10),2,4-trien-16-yl]methyl}benzamide]
- inhibition at 0.1 µM (17β-HSD1; read-out: Inhibition (0.1 μM)): 5%
- inhibition at 1 µM (17β-HSD1): 15%

SMILES: CN(C)Cc1ccc2c(c1)CC[C@@H]1[C@@H]2CC[C@]2(C)[C@@H](O)[C@@H](Cc3cccc(C(N)=O)c3)C[C@@H]12 [Compound 40a, 3-{[(16β,17β)-3-[(dimethylamino)methyl]-17-hydroxyestra-1,3,5(10)-trien-16-yl]methyl}benzamide]
- inhibition at 0.1 µM (17β-HSD1; [7]): 12%
- inhibition at 1 µM (17β-HSD1; [8]): 49%

SMILES: C[C@]12CC[C@@H]3c4ccc(CN5CCCC5)cc4CC[C@H]3[C@@H]1C[C@H](Cc1cccc(C(N)=O)c1)[C@@H]2O [Compound 40c, 3-{[(16β,17β)-17-hydroxy-3-(pyrrolidin-1-ylmethyl)estra-1,3,5(10)-trien-16-yl]methyl}benzamide]
- inhibition at 0.1 µM (17β-HSD1; [7]): 1%
- inhibition at 1 µM (17β-HSD1; [8]): 28%

SMILES: C[C@]12CC[C@@H]3c4ccc(C(=O)N5CCCC5)cc4CC[C@H]3[C@@H]1C[C@H](Cc1cccc(C(N)=O)c1)[C@@H]2O [Compound 41c, 3-{[(16β,17β)-17-hydroxy-3-(pyrrolidin-1-ylcarbonyl)estra-1,3,5(10)-trien-16-yl]methyl}benzamide]
- inhibition at 0.1 µM (17β-HSD1; read-out: Inhibition (0.1 μM)): 0%
- inhibition at 1 µM (17β-HSD1): 13%

SMILES: C[C@]12CC[C@@H]3c4ccc(CBr)cc4CC[C@H]3[C@@H]1C[C@H](Cc1cccc(C(N)=O)c1)[C@@H]2O [III, 3-{[(16β,17β)-3-(bromomethyl)-17-hydroxyestra-1,3,5(10)-trien-16-yl]methyl}benzamide]
- inhibition at 0.01 µM (17β-HSD1; read-out: Inhibition % (0.01 μM)): 20%
- inhibition at 0.1 µM (17β-HSD1; read-out: Inhibition % (0.1 μM)): 36%
- inhibition at 0.1 µM (17β-HSD1; read-out: Inhibition (0.1 μM)): 19%
- inhibition at 1 µM (17β-HSD1): 66%
